# According to patent US5308867A, “Platelet activating factor antagonists, named "the phomactins", their preparation and use” (Sankyo Company, Limited, priority 1988, dated 1994):
# Columns and labels:
# platelet aggregation = test: Antiplatelet aggregation test in rabbit platelet-rich plasma, synthetic C16:0 PAF-induced (method of Born et al.); format: cell-based; conditions: platelet count 6×10^5 /μl, C16:0 PAF final 1×10^-8 -3×10^-8 M; for IC50: Oryctolagus cuniculus, read-out: IC50 (concentration necessary to inhibit aggregation by 50%)
# Protocol: The following antiplatelet aggregation test was performed, using the phomactin A thus obtained.
# Blood was drawn from a rabbit heart and immediately mixed with nine times its volume of a 3.8% w/v aqueous solution of sodium citrate. A platelet-rich plasma (PRP) was then obtained as a supernatant by centrifugation of the blood mixture at 150×g for 15 minutes at room temperature. The precipitated fraction remaining from the blood mixture was then centrifuged for a further 15 minutes at 10,000×g to obtain a platelet-poor plasma (PPP) as a supernatant. Appropriate proportions of the PRP and the PPP were mixed to obtain a plasma having a platelet count of 6×10^5 /μl.
# Platelet aggregation was determined by the method of Born et al. [Nature, 194, 927-929 (1962)] where an increase in light transmission through the test sample is measured by means of an aggregometer.
# The aggregation resulting from the addition of the PAF alone, without the prior addition of the test compound, was taken as 100%.
# Instead of the test solution, physiological saline was added and the aggregation at one minutes after the addition of C16 -PAF was used as the control.
# Solubility = format: physicochemical; conditions: for Solubility in organic solvents: methanol, ethanol, acetone, ethyl acetate, chloroform, dimethyl sulfoxide, benzene and diethyl ether
# [1] = test system: arrhythmias evoked by ligation of left anterior descending coronary artery; conditions: cited from earlier work
# [2] = test system: infarct size after coronary artery ligation; conditions: 5 mg kg^-1 i.v. immediately before occlusion, after 24 h of occlusion, rats, cited from earlier work
IC50 (platelet aggregation) [µM],Solubility in water (Solubility),Structure (SMILES),inhibition of platelet aggregation (platelet aggregation; at a concentration of 10 g/ml (so in the source)),Solubility in organic solvents (Solubility),"number of ectopic beats during the 30 min ischemic period (in words) ([1]; 5 mg kg^-1, 15 min before coronary artery occlusion, mongrel dogs)","Number of ectopic beats, 5-10 min of ischemia, mean ± SEM ([1]; 5 mg kg^-1 i.v. bolus 15 min before ligation, 5-10 min, dogs, p < 0.05 (Wilcoxon))","Number of ectopic beats, 10-15 min of ischemia, mean ± SEM ([1]; 5 mg kg^-1 i.v. bolus 15 min before ligation, 10-15 min, dogs, p < 0.05 (Wilcoxon))","Number of ectopic beats, 15-20 min of ischemia, mean ± SEM ([1]; 5 mg kg^-1 i.v. bolus 15 min before ligation, 15-20 min, dogs, p < 0.05 (Wilcoxon))","Number of ectopic beats, 20-25 min of ischemia, mean ± SEM ([1]; 5 mg kg^-1 i.v. bolus 15 min before ligation, 20-25 min, dogs, p < 0.05 (Wilcoxon))","Number of ectopic beats, 25-30 min of ischemia, mean ± SEM ([1]; 5 mg kg^-1 i.v. bolus 15 min before ligation, 25-30 min, dogs, p < 0.05 (Wilcoxon))","infarct size ([2]; control 26±2.2%, p<0.05)",infarct size (in words) ([2]; preliminary studies)
17,insoluble in water,"CC1=CCCC2(C)OC3CC(C)C(C)(CC1)C1=C3C(O)(OC1)C2O (stereo not drawn) [Phomactin A, 3,3a-dihydroxy-2,6-(3'-methyl-3'-hexeno)-2,6,7-trimethyl-3a,5,6,7,8,8a-hexanhydrofuro[2,3,4-de]chroman]",about 91.7%,"Soluble in methanol, ethanol, acetone, ethyl acetate, chloroform, dimethyl sulfoxide, benzene and diethyl ether",–,–,–,–,–,–,–,–
–,–,CC1C(=O)OC2C(O)C34C5CC(C(C)(C)C)C36C(OC(=O)C6O)OC4(C(=O)O5)C12O (stereo not drawn) [BN-52021],–,–,significantly reduced the number of ectopic beats,10 ± 5.4,10 ± 5.3,15 ± 6.3,55 ± 28.6,98 ± 39.0,17±1.8 % of heart tissue,significantly reduced the infarct size
17,insoluble in water,"CC1=CCCC2(C)OC2C(=O)C2=CC(O)C(C)C(C)(CC1)C2(C)O (stereo not drawn) [Phomactin B, 13,15-dihydroxy-3,4-epoxy-2-oxo-4,8,11,12,15-pentamethylbicycl[9.3.1]pentadeca-7,14-diene]",–,"Soluble in methanol, ethanol, acetone, ethyl acetate, chloroform, dimethyl sulfoxide, benzene and diethyl ether",–,–,–,–,–,–,–,–
